Assay results reported in patent US20240383869A1, “ARYLACETYL INHIBITORS OF TG2 AND USES THEREOF” (UNIVERSITY OF OTTAWA, priority 2021, published 2024).
≈ marks a conversion by molar mass, not a printed value.

Key:
hTG2 [1] = target: T1, hTG2 (Homo sapiens, UniProt P21980); conditions: shown previously; cited from earlier work
T1 sequence (P21980 1-687): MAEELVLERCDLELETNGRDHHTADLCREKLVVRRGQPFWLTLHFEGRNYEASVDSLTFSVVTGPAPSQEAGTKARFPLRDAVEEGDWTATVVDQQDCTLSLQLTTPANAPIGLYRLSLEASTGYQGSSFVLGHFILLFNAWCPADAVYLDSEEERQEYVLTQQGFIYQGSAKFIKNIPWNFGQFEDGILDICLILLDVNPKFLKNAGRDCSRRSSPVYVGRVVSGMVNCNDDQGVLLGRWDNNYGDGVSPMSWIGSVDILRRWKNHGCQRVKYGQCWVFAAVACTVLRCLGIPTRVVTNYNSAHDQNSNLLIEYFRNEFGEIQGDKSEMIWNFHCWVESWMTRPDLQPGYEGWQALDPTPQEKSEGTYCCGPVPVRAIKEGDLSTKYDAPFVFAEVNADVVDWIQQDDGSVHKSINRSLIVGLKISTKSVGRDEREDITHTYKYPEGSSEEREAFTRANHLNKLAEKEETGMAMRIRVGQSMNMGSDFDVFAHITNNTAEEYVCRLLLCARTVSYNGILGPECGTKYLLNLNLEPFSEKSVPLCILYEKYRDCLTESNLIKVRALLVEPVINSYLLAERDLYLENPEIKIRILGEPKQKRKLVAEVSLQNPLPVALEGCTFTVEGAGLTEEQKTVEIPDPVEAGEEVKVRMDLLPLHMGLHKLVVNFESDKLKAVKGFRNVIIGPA

hTG2 [2] = target: T1, hTG2; test: In vitro GTP binding assay (BODIPY GTP-γ-S fluorescence); conditions: inhibitor 2×KI, 30 minutes at 25° C.; 3 μM BODIPY GTP-γ-S
Method: Previously we proposed a mechanism of action for the NC9, VA4 and AA9 inhibitors based on their ability to react covalently with the open conformation of TG2, locking the enzyme in that conformation and thereby abolishing the enzyme's ability to bind GTP and act as a G-protein. […] We used the same in vitro GTP binding assay to measure the ability of representative phenylacetyl inhibitors 67 and 72 to abolish GTP binding, as follows:
In vitro GTP binding assay. GTP binding was measured using a method similar to that reported previously (McEwen, D. P. et al., “Fluorescent BODIPY-GTP analogs: Real-time measurement of nucleotide binding to G proteins.” Anal. Biochem. 2001, 291 (1), 109-117). […] The buffer was then exchanged to 100 mM MOPS (pH=7.0), 1 mM EGTA and 5 mM MgCl2 to remove calcium via dialysis using a 10-kDa molecular weight cut off membrane. The fluorescent GTP analog was added to give a final concentration of 3.0 μM and fluorescence was measured on a microplate reader after 10 minutes of incubation (Ex/Em: 490/520 nm).

Kinetic solubility = type: physicochemical; conditions: kinetic from dmso stock
P-gp (MDR1) = test: MDCK-MDR1 permeability; type: in vitro ADME; conditions: dog, MDCK-MDR1

C=CC(=O)NCCCC[C@H](NC(=O)OCc1ccccc1)C(=O)N1CCN(C(=O)c2cccc3ccccc23)CC1 [AA9, reference compound]
suppression of TG2 binding of GTP-γ-S-FL BODIPY (hTG2 [1]): suppress the ability of TG2 to bind GTP-γ-S-FL BODIPY

C=CC(=O)NCCCC[C@H](NC(=O)Cc1ccccc1F)C(=O)N1CCN(C(=O)c2cccc3ccccc23)CC1 [Inhibitor 72, (S)-N-(6-(4-(1-naphthoyl)piperazin-1-yl)-5-(2-(2-fluorophenyl)acetamido)-6-oxohexyl)acrylamide]
inhibition of GTP binding of hTG2 (hTG2 [2]): abolished the GTP binding ability

C=CC(=O)NCCCC[C@H](NC(=O)Cc1ccccc1C)C(=O)N1CCN(C(=O)c2cccc3ccccc23)CC1 [Inhibitor 74, (S)-N-(6-(4-(1-naphthoyl)piperazin-1-yl)-5-(2-(2-methylphenyl)acetamido)-6-oxohexyl)acrylamide]
solubility kinetic (Kinetic solubility): 39 µM (≈ 21.6 µg/mL) | efflux ratio (P-gp (MDR1)): > 50
